Assay results from patent US11116778B2, “Prodrugs of ALOX-15 inhibitors and methods of using the same” (EMPIRICO INC., priority 2019, dated 2021).
≈ marks a conversion by molar mass, not a printed value. Read-outs that look alike come from different tables or passages of the source.

How the values were obtained:
[1] = Solubility assessment in water; format: physicochemical; conditions: water; 0.4 μg/ml at molecular weight 308; read-out: solubility, concentration
Protocol: Water was added slowly to 4.7 mg of compound 5 until 4.7 ml of water was added at which point the phosphate fully dissolved. The pH of the solution was estimated using litmus paper and estimated to be <3. Without a counterion, the molecular weight of the phosphate is 418 m. Therefore, at 1 mg/ml, the concentration is 2.4 mM.
For comparison, compound 3 is soluble to 0.4 μg/ml (Han et al FASEB J. 2017 31(2):491-504), which at a molecular weight of 308 is 1.3 μM.
Compound 5 was suspended in water (at weight to give a final concentration of 10 mM) and then 2 eq NaHCO3 was added.

[2] = Levels of compound 3 and compound 5 in rabbit nasal lavage and serum after nasal administration of compound 5; format: in vivo
Protocol: Six (6) female NZW rabbits were employed in this study. Rabbits were obtained from Covance (Denver Pa.). Rabbits were between approximately 10 and 12 months of age at the time of study start. At time point 0, all animals received 50 μL of solution containing rabbit IL4 (RND Systems/Biotechne) and human IL13 (PreproTech) at a concentration of 0.25 mg/mL each in 0.5×PBS containing 12.5 mg/mL BSA per nostril. This was administered intranasally via a venous catheter attached to a micropipette. The animal was positioned in a supine manner and the venous catheter inserted into the nostril. The volume was introduced into the nasal cavity and the same procedure was repeated with the other nostril.
At the 2, 4, and 6 hour time points, animals in Group 1 (n=3) received 0.2 mL of vehicle (0.9% saline) per nostril and the animals in Group 2 (n=3) received 0.2 mL of compound 5 (10 mM) in vehicle per nostril. The dosing of vehicle and compound 5 proceed as follows: The animal was positioned in a supine manner in a restraint bag and a mucosal atomization device (MAD) attached to the pre-filled tuberculin syringe was inserted into the nostril and introduced into the nasal cavity. The same procedure was repeated with the other nostril.
At the 8 hour time point, all the nostrils of all animals were lavaged with 1 mL of 0.9% saline per nostril and the resulting fluid collected. Intranasal lavages were performed as follows: The animals were held sternally in a restraint bag with the head over the edge of the table and the rear of the animal elevated higher than the head. A flexible venous catheter was inserted in the nostril until resistance was felt. The 1 mL of saline was introduced through the catheter into the nasal cavity. The nasal lavage returned from the nostril was collected via a funnel into a conical tube and the approximate volume recorded. This procedure was repeated for the other nostril. The lavage was stored at approximately −70° C. until analysis. Following (<10 minutes) the 8 hour time point lavage, blood was collected from all animals, processed to serum, and frozen at approximately −70° C. until analysis.
Nasal lavage and serum samples were analyzed for the levels of compound 3 and compound 5. Frozen tissue samples were weighed (20-120 mg) and placed into 2 mL CK14 homogenizing tubes (Bertin) and 500 μL of methanol containing 1 mM butylated hydroxy toluene (BHT) and 1 mM tris(2-carboxyethyl)phosphine (TCEP) was added. The tubes were placed in a Precellys 24 tissue homogenizer (Bertin) and run at 6000 rpm six times for 20 seconds with a 10 second pause between cycles. The tubes containing the homogenized tissue were then placed in a microfuge and centrifuged for 5′ at 14,000 rpm to pellet any insoluble material. Compound 3 was quantified using LC-MS/MS (QTrap5500, Applied Biosystems). Q1/Q3 Masses: 306.00/135.00 using a deschloro derivative of compound 3 (lacking chlorine at 4 position of pyrazole ring) as an internal standard. The Q1/Q3 Masses are 272.00/101.00 Da for the internal standard. Compound 3 was extracted using liquid/liquid extraction with methanol as a diluent. […] Compound 5 was quantified using LC-MS/MS (QTrap5500, Applied Biosystems). […] Compound 5 was detected in the lavage samples from Group 2 animals (rabbit 1, rabbit 2, rabbit 3) and ranged in average concentration from 0.016 uM-0.35 uM. […]

[3] = Han et al FASEB J. 2017; cited from earlier work

solubility [1]: 1.3 µM (≈ 0.401 µg/mL)
concentration at 8 h ([2]; female, NZW, rabbit, nasal lavage, other: intranasal (mucosal atomization device), rabbits dosed with compound 5, 0.2 mL of 10 mM per nostril at 2, 4, 6 hours, lavage at 8 hours, range over 3 rabbits, read-out: average concentration of compound 3 in nasal lavage (FIG. 8)): 890 to 3100 nM
level in serum samples ([2]; rabbits, intranasal compound 5 10 mM, blood after the 8 hour lavage): no quantifiable
SMILES: O=C(Nc1ccc(F)cc1Cl)c1n[nH]c(Cl)c1Cl [compound 3, 4,5-dichloro-N-(2-chloro-4-fluorophenyl)-1H-pyrazole-3-carboxamide]
solubility [3]: 0.4 µg/mL (≈ 1.3 µM)
